Results taken from PubChem BioAssay AID1963871 (Molecular Pharmacology Branch, DTP, NCI, 2024).

Tested on: KRAS-mutant PDC multicell tumor spheroid viability
Assay: Anticancer human tumor 521955-158-R2-J5-PDC patient-derived pancreatic carcinoma cell line growth inhibition [KRAS2]
Settings: for IC50: curve of first compound; for viability, T/C: stronger effect = lower value
Procedure, shortened: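 Combination screen of spheroid viability in tumor-cell co-cultures with endothelial (HUVEC) and mesenchymal stem cell stroma. Each agent was tested in half-log dilutions, topping at clinical Cmax or at 10 microM without a known Cmax.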

[1] = second compound 0.1 µM, first compound 0.0316 µM
[2] = second compound 0.1 µM, first compound 0.1 µM
[3] = second compound 0.1 µM, first compound 0.316 µM
[4] = second compound 0.1 µM, first compound 1 µM
[5] = second compound 0.1 µM, first compound 3.16 µM
[6] = second compound 0.1 µM, first compound 10 µM
[7] = second compound 0.316 µM, first compound 0.0316 µM
[8] = second compound 0.316 µM, first compound 0.1 µM
[9] = second compound 0.316 µM, first compound 0.316 µM
[10] = second compound 0.316 µM, first compound 1 µM
[11] = second compound 0.316 µM, first compound 3.16 µM
[12] = second compound 0.316 µM, first compound 10 µM
[13] = second compound 1 µM, first compound 0.0316 µM
[14] = second compound 1 µM, first compound 0.1 µM
[15] = second compound 1 µM, first compound 0.316 µM
[16] = second compound 1 µM, first compound 1 µM
[17] = second compound 1 µM, first compound 3.16 µM
[18] = second compound 1 µM, first compound 10 µM
[19] = second compound 3.16 µM, first compound 0.0316 µM
[20] = second compound 3.16 µM, first compound 0.1 µM
[21] = second compound 3.16 µM, first compound 0.316 µM
[22] = second compound 3.16 µM, first compound 1 µM
[23] = second compound 3.16 µM, first compound 3.16 µM
[24] = second compound 3.16 µM, first compound 10 µM
[25] = second compound 10 µM, first compound 0.0316 µM
[26] = second compound 10 µM, first compound 0.1 µM
[27] = second compound 10 µM, first compound 0.316 µM
[28] = second compound 10 µM, first compound 1 µM
[29] = second compound 10 µM, first compound 3.16 µM
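Also: viability read after seven days of drug exposure.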

| SMILES | IC50 (second compound 0.1 µM) [nM] | IC50 (second compound 0.316 µM) [nM] | IC50 (second compound 1 µM) [nM] | IC50 (second compound 3.16 µM) [nM] | viability, T/C [1] [%] | viability, T/C [2] [%] | viability, T/C [3] [%] | viability, T/C [4] [%] | viability, T/C [5] [%] | viability, T/C [7] [%] | viability, T/C [8] [%] | viability, T/C [9] [%] | viability, T/C [10] [%] | viability, T/C [11] [%] | viability, T/C [13] [%] | viability, T/C [14] [%] | viability, T/C [15] [%] | viability, T/C [16] [%] | viability, T/C [17] [%] | viability, T/C [19] [%] | also measured |
| --- | --- | --- | --- | --- | --- | --- | --- | --- | --- | --- | --- | --- | --- | --- | --- | --- | --- | --- | --- | --- | --- |
| Cn1nccc1Nc1nccc(-c2cc3c(s2)C(C)(C)N(CCN2CCOCC2)C3=O)n1 + CC1OCC2(CCN(c3cnc(Sc4ccnc(N)c4Cl)c(N)n3)CC2)C1N | 493 | 485 | 490 | 602 | 94.1 | 70.9 | 58.5 | 41.5 | 25 | 69.9 | 62.1 | 58.4 | 38.5 | 25.4 | 73.6 | 66.9 | 57.5 | 38.7 | 24.7 | 71.4 | IC50 (second compound 10 µM): 427 nM; viability, T/C [6]: 19.6%; viability, T/C [12]: 15.6%; viability, T/C [18]: 15.9%; viability, T/C [20]: 63.1%; viability, T/C [21]: 63%; viability, T/C [22]: 40.4%; viability, T/C [23]: 23.3%; viability, T/C [24]: 18.4%; viability, T/C [25]: 50.9%; viability, T/C [26]: 56%; viability, T/C [27]: 57.9%; viability, T/C [28]: 36%; viability, T/C [29]: 27.3%; viability, T/C (second compound 10 µM, first compound 10 µM): 18.2% |
| CC(=O)OC12COC1CC(O)C1(C)C(=O)C(O)C3=C(C)C(OC(=O)C(O)C(NC(=O)OC(C)(C)C)c4ccccc4)CC(O)(C(OC(=O)c4ccccc4)C21)C3(C)C (stereo not given) + CNCc1ccccc1-c1csc(C(C)Nc2nc(C)nc3cc(OC)c(OC)cc23)c1 | < 10 | < 10 | < 10 | < 10 | 16.2 | 15.3 | 14.8 | 16.6 | 20.3 | 16.6 | 16.7 | 15.8 | 19.6 | 23.6 | 13.2 | 13.2 | 13.2 | 19.9 | 20 | 13.9 | IC50 (second compound 10 µM): < 10 nM; viability, T/C (second compound 0.1 µM, first compound 0.01 µM): 28.2%; viability, T/C (second compound 0.316 µM, first compound 0.01 µM): 20.4%; viability, T/C (second compound 1 µM, first compound 0.01 µM): 23%; viability, T/C (second compound 3.16 µM, first compound 0.01 µM): 0.16%; viability, T/C [20]: 0.05%; viability, T/C [21]: 0.05%; viability, T/C [22]: 0.1%; viability, T/C [23]: 17%; viability, T/C (second compound 10 µM, first compound 0.01 µM): 0.17%; viability, T/C [25]: 0.14%; viability, T/C [26]: 0.11%; viability, T/C [27]: 0.11%; viability, T/C [28]: 0.12%; viability, T/C [29]: 0.34% |
| COC(=O)c1ccc2c(C(=Nc3ccc(N(C)C(=O)CN4CCN(C)CC4)cc3)c3ccccc3)c(O)[nH]c2c1 + C=CC(=O)N1CCN(c2nc(OCC3CCCN3C)nc3c2CCN(c2cccc4cccc(C)c24)C3)CC1CC#N | 864 | 280 | < 31.6 | < 31.6 | 64.2 | 69.8 | 65.2 | 47.7 | 8.93 | 72.1 | 69.5 | 43.7 | 28.6 | 2.62 | 49.4 | 50.6 | 37.3 | 26.4 | 1.74 | 1.66 | IC50 (second compound 0.0316 µM): 1160 nM; viability, T/C (second compound 0.0316 µM, first compound 0.0316 µM): 78%; viability, T/C (second compound 0.0316 µM, first compound 0.1 µM): 67.5%; viability, T/C (second compound 0.0316 µM, first compound 0.316 µM): 75.1%; viability, T/C (second compound 0.0316 µM, first compound 1 µM): 55.9%; viability, T/C (second compound 0.0316 µM, first compound 3.16 µM): 9.24%; viability, T/C (second compound 0.0316 µM, first compound 10 µM): 0.33%; viability, T/C [6]: 0.33%; viability, T/C [12]: 1.9%; viability, T/C [18]: 0.25%; viability, T/C [20]: 0.72%; viability, T/C [21]: 0.77%; viability, T/C [22]: 0.34%; viability, T/C [23]: 0.55%; viability, T/C [24]: 0.44% |
